From patent US20110105408A1, “THERAPEUTIC PEPTIDES” (INTER-K PTY LIMITED, priority 2008, published 2011)

System: phospho-ERK in HT29 cells
Test: Phospho-ERK ELISA (FACE ERK1/2 kit) in HT29 cells
Type: cell-based, human
Method: HT29 cells were harvested using 0.5% trypsin EDTA (Invitrogen) and 5000 cells were resuspended into 200 μL, and added to each well of a clear NUNC tissue culture treated 96 well plate (NUNC). Cells were seeded in DMEM media (Invitrogen) supplemented with 10% v/v foetal calf serum (FCS, Invitrogen), 1% L-Glutamine (Invitrogen) and 2% 1M HEPES buffer solution (Invitrogen). Cells were then incubated overnight at 37° C. The following day, the growth medium was replaced with 100 μL of serum-free DMEM supplemented with 1% L-glutamine and 2% 1M HEPES buffer solution, and incubated for a further 24 hours at 37° C. Dendrimers were added to test wells in serum free medium to provide final concentrations of the dendrimers ranging from 0.1-20 μLA. The total volume of each well was 200 uL, and cells were incubated at 37° C. for times ranging from 5 minutes to 4 hours. In those studies in which cells were subjected to stimulation by serum, 22 μL FCS (10% v/v final concentration) was added to wells for the final ten minutes of the culture period at 37° C. Serum-free media (SFM) only (22 μL) was added to non-serum stimulated cells.
Phospho-ERK levels were determined using the FACE ERK1/2 ELISA kit according to the manufacturer's instructions (Active Motif, kit obtained from Australian Biosearch, WA, Australia). Briefly, media was replaced and cells fixed with 4% formaldehyde in PBS, and after a 1 hour with antibody blocking buffer (supplied), the primary phospho-ERK or total-ERK antibody was added and incubated overnight at 4° C. Antibody dilution buffer only was added to control test wells containing no primary antibody. The next day, HRP-conjugated secondary antibody was added for one hour before plates were developed and the absorbance measured at 450 nm using a Labsystems Multiskan EX microplate reader (Labsystems, Thermo Labsystems, UK).
The effectiveness of the peptide dendrimer IK248 described in Example 2 in inhibiting growth factor mediated activation of ERK in HT29 cancer cells (i.e., (FCS stimulated) compared to various agents comprising the polypeptide RSKAKNPLYR (SEQ ID No. 6) coupled to different peptide facilitator moieties for facilitating passage of the polypeptide across the plasma cell membrane into the cytosol of the cells was evaluated. Phospho-ERK levels in the cells following treatment with 5 μM IK248 (Dend 8) for 1 hour or polypeptide-facilitator moiety agents (each at 5 μM for the same duration) were measured essentially as described in Example 1.3. The facilitator moieties utilised were the signal peptide fragment AAVALLPAVLLALLA (SEQ ID No. 16), the TAT-G peptide GRKKRRQRRRPPQG (SEQ ID No. 17), a modified pentratin sequence Tr-Pen RRQKWKKG (SEQ ID No. 18), and the penetratin peptide RQIKIWFQNRRMKWKKCS—SC (SEQ ID No. 19) wherein S—S indicates a disulphide bridge between the adjacent cysteine residues.
The peptide RSKAKNPLYR (SEQ ID. No. 6) or peptide dendrimers of the type illustrated in FIG. 3 comprising lysine branching units presenting either 8 (IK248) or 10 (IK248B) monomer units of the peptide RSKAKNPLYR (SEQ ID No. 6) were utilised in this study. Phospho-ERK levels were evaluated by ELISA utilising an Active Motif FACE ERK1/2 ELISA kit (Australian Biosearch, WA, Australia) as described in Example 1.3.

For `CC(C)C[C@H](NC(=O)[C@@H]1CCCN1C(=O)[C@H](CC(N)=O)NC(=O)[C@H](CCCCN)NC(=O)[C@H](C)NC(=O)[C@H](CCCCN)NC(=O)[C@H](CO)NC(=O)[C@@H](N)CCCNC(=N)N)C(=O)N[C@@H](Cc1ccc(O)cc1)C(=O)N[C@@H](CCCNC(=N)N)C(=O)NCCCC[C@H](NC(=O)[C@H](CCCCNC(=O)[C@H](CCCCNC(=O)[C@H](CCCNC(=N)N)NC(=O)[C@H](Cc1ccc(O)cc1)NC(=O)[C@H](CC(C)C)NC(=O)[C@@H]1CCCN1C(=O)[C@H](CC(N)=O)NC(=O)[C@H](CCCCN)NC(=O)[C@H](C)NC(=O)[C@H](CCCCN)NC(=O)[C@H](CO)NC(=O)[C@@H](N)CCCNC(=N)N)NC(=O)[C@H](CCCNC(=N)N)NC(=O)[C@H](Cc1ccc(O)cc1)NC(=O)[C@H](CC(C)C)NC(=O)[C@@H]1CCCN1C(=O)[C@H](CC(N)=O)NC(=O)[C@H](CCCCN)NC(=O)[C@H](C)NC(=O)[C@H](CCCCN)NC(=O)[C@H](CO)NC(=O)[C@@H](N)CCCNC(=N)N)NC(=O)[C@H](CCCCNC(=O)[C@H](CCCNC(=N)N)NC(=O)[C@H](Cc1ccc(O)cc1)NC(=O)[C@H](CC(C)C)NC(=O)[C@@H]1CCCN1C(=O)[C@H](CC(N)=O)NC(=O)[C@H](CCCCN)NC(=O)[C@H](C)NC(=O)[C@H](CCCCN)NC(=O)[C@H](CO)NC(=O)[C@@H](N)CCCNC(=N)N)NC(=O)[C@H](CCCNC(=N)N)NC(=O)[C@H](Cc1ccc(O)cc1)NC(=O)[C@H](CC(C)C)NC(=O)[C@@H]1CCCN1C(=O)[C@H](CC(N)=O)NC(=O)[C@H](CCCCN)NC(=O)[C@H](C)NC(=O)[C@H](CCCCN)NC(=O)[C@H](CO)NC(=O)[C@@H](N)CCCNC(=N)N)C(=O)NCCCC[C@H](NC(=O)[C@H](CCCCNC(=O)[C@H](CCCNC(=N)N)NC(=O)[C@H](Cc1ccc(O)cc1)NC(=O)[C@H](CC(C)C)NC(=O)[C@@H]1CCCN1C(=O)[C@H](CC(N)=O)NC(=O)[C@H](CCCCN)NC(=O)[C@H](C)NC(=O)[C@H](CCCCN)NC(=O)[C@H](CO)NC(=O)[C@@H](N)CCCNC(=N)N)NC(=O)[C@H](CCCCNC(=O)[C@H](CCCCNC(=O)[C@H](CCCNC(=N)N)NC(=O)[C@H](Cc1ccc(O)cc1)NC(=O)[C@H](CC(C)C)NC(=O)[C@@H]1CCCN1C(=O)[C@H](CC(N)=O)NC(=O)[C@H](CCCCN)NC(=O)[C@H](C)NC(=O)[C@H](CCCCN)NC(=O)[C@H](CO)NC(=O)[C@@H](N)CCCNC(=N)N)NC(=O)[C@H](CCCNC(=N)N)NC(=O)[C@H](Cc1ccc(O)cc1)NC(=O)[C@H](CC(C)C)NC(=O)[C@@H]1CCCN1C(=O)[C@H](CC(N)=O)NC(=O)[C@H](CCCCN)NC(=O)[C@H](C)NC(=O)[C@H](CCCCN)NC(=O)[C@H](CO)NC(=O)[C@@H](N)CCCNC(=N)N)NC(=O)[C@H](CCCCNC(=O)[C@H](CCCNC(=N)N)NC(=O)[C@H](Cc1ccc(O)cc1)NC(=O)[C@H](CC(C)C)NC(=O)[C@@H]1CCCN1C(=O)[C@H](CC(N)=O)NC(=O)[C@H](CCCCN)NC(=O)[C@H](C)NC(=O)[C@H](CCCCN)NC(=O)[C@H](CO)NC(=O)[C@@H](N)CCCNC(=N)N)NC(=O)[C@H](CCCNC(=N)N)NC(=O)[C@H](Cc1ccc(O)cc1)NC(=O)[C@H](CC(C)C)NC(=O)[C@@H]1CCCN1C(=O)[C@H](CC(N)=O)NC(=O)[C@H](CCCCN)NC(=O)[C@H](C)NC(=O)[C@H](CCCCN)NC(=O)[C@H](CO)NC(=O)[C@@H](N)CCCNC(=N)N)C(=O)NCCC(N)=O` [IK248B], the “phospho-ERK levels relative to control cells, dose response” value (HI FCS stimulated HT29 cells) was “decreased relative to control cells with progressively increasing dosages”, the “ERK activity (as indicated by phospho-ERK levels)” value (HI FCS stimulated HT29 cells, 10 μM (data not shown)) was “entirely inhibited” and the phospho-ERK levels (HI FCS stimulated HT29 cells, dose of 5 μM) was “almost totally abrogated”. The “phospho-ERK levels in HT29 cells compared to normal skin fibroblast cells (selectivity for cancer cells)” value (data not shown) was “significantly reduced compared to normal skin fibroblast cells” and the “basal phospho-ERK level relative to control cells” value (not FCS stimulated, 0.1, 0.5, 1 and 5 μM, 4 hr incubation) was “did not stimulate basal phospho-ERK levels”.
